Source: patent US8809376B2, “Indanyloxydihydrobenzofuranylacetic acids” (Boehringer Ingelheim International GmbH, priority 2012, dated 2014)

Experiments:
[1] = biological target: T1, human GPR40 receptor (Homo sapiens, UniProt O14842); test: Assay I: IP1 accumulation (IPOne assay system) in 1321N1 cells stably expressing human GPR40 receptor; format: cell-based; conditions: stimulated 1 hour at 37° C., 10% CO2, LiCl 50 mM
Procedure: IP1 accumulation measurements using the IPOne assay system—1321N1 cells stably expressing human GPR40 receptor (Euroscreen, Belgium) are seeded 24 h before the assay in black clear-bottom collagen-coated 384-well plates in culture medium containing 10% FCS, 1% Na-Pyruvate and 400 μg/mL G418. IP1 is assayed according to the Manufacturer's description (Cisbio Bioassays, France). In brief, the assay is started by substitution of the culture medium by stimulation buffer (Hepes 10 mM, CaCl2 1 mM, MgCl2 0.5 mM, KCl 4.2 mM, NaCl 146 mM and glucose 5.5 mM, pH 7.4) without LiCl. Cells are stimulated for 1 hour at 37° C., 10% CO2 by addition of the compounds that are diluted in stimulation buffer containing LiCl yielding a final LiCl concentration of 50 mM. Assays are stopped by adding HTRF-conjugates (IP1-d2 and Anti-IP1 cryptate Tb) and lysis buffer, provided by the manufacturer. After an incubation time of 1 hour at room temperature plates are measured using an EnVision™, Perkin Elmer. The obtained fluorescence ratios at 665/615 nM are then used to calculate the pEC50 values using GraphPad Prism 5 (Graphpad Software Inc, USA) by interpolation using an IP1 reference curve and subsequent sigmoidal curve fitting allowing for a variable hill slope.

[2] = biological target: T1, human GPR40 receptor; test: Assay II: IP1 accumulation (IPOne assay system) in 1321N1 cells stably expressing human GPR40 receptor; format: cell-based; conditions: stimulated 1 h at 37° C., 5% CO2, LiCl 50 mM
Procedure: IP1 accumulation measurements using the IPOne assay system—1321N1 cells stably expressing human GPR40 receptor (Euroscreen, Belgium) are seeded 24 h before the assay in white 384-well plates in culture medium containing 10% FCS, 1% Na-Pyruvate and 400 μg/mL G418. IP1 is assayed according to the manufacturer's description (Cisbio Bioassays, France). In brief, the assay is started by substitution of the culture medium by stimulation buffer (Hepes 10 mM, CaCl2 1 mM, MgCl2 0.5 mM, KCl 4.2 mM, NaCl 146 mM, glucose 5.5 mM and LiCl 50 mM, pH 7.4). Cells are stimulated for 1 h at 37° C., 5% CO2 by addition of the compounds that are diluted in stimulation buffer containing LiCl. Assays are stopped by adding HTRF-conjugates (IP1-d2 and Anti-IP1 cryptate Tb) and lysis buffer, provided by the manufacturer. After an incubation time of 1 h at room temperature plates are measured using an EnVision™, Perkin Elmer. The obtained fluorescence ratios at 665/615 […] are then used to calculate the pEC50 values using Assay Explorer 3.3 Software (Accelrys, Inc.) by interpolation using an IP1 reference curve and subsequent sigmoidal curve fitting allowing for a variable hill slope.

T1 sequence (O14842 whole entry): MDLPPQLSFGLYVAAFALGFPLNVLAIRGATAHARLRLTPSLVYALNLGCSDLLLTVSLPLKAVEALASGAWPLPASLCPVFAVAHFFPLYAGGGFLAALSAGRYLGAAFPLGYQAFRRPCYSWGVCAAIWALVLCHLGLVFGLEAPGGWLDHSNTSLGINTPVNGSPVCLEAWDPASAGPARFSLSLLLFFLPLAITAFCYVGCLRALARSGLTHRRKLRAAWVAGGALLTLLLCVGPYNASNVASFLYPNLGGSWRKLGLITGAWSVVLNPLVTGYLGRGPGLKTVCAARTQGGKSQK

SMILES	EC50 [1] [nM]	EC50 [2] [nM]
N#Cc1ccc2c(c1Cc1ccccc1)CC[C@H]2Oc1ccc2c(c1)OC[C@H]2CC(=O)O [Example 1, {(S)-6-[(R)-4-Benzyl-5-cyano-indan-1-yloxy]-2,3-dihydro-benzofuran-3-yl}-acetic acid]	5	
N#Cc1ccc2c(c1Cc1ccc(Cl)nc1)CC[C@H]2Oc1ccc2c(c1)OC[C@H]2CC(=O)O [Example 2, {(S)-6-[(R)-4-(6-Chloro-pyridin-3-ylmethyl)-5-cyano-indan-1-yloxy]-2,3-dihydro-benzofuran-3-yl}-acetic acid]	36	
COc1cccc(Cc2c(C#N)ccc3c2CC[C@H]3Oc2ccc3c(c2)OC[C@H]3CC(=O)O)c1 [Example 3, {(S)-6-[(R)-5-Cyano-4-(3-methoxy-benzyl)-indan-1-yloxy]-2,3-dihydro-benzofuran-3-yl}-acetic acid]	24	
COc1ccc(Cc2c(C#N)ccc3c2CC[C@H]3Oc2ccc3c(c2)OC[C@H]3CC(=O)O)cc1 [Example 4, {(S)-6-[(R)-5-Cyano-4-(4-methoxy-benzyl)-indan-1-yloxy]-2,3-dihydro-benzofuran-3-yl}-acetic acid]	5	
Cc1cccc(C)c1Cc1c(C#N)ccc2c1CC[C@H]2Oc1ccc2c(c1)OC[C@H]2CC(=O)O [Example 5, {(S)-6-[(R)-5-Cyano-4-(2,6-dimethyl-benzyl)-indan-1-yloxy]-2,3-dihydro-benzofuran-3-yl}-acetic acid]	6	
CS(=O)(=O)c1ccc(Cc2c(C(F)(F)F)ccc3c2CC[C@H]3Oc2ccc3c(c2)OC[C@H]3CC(=O)O)cc1 [Example 17, {(S)-6-[(R)-4-(4-Methylsulfonyl-benzyl)-5-trifluoromethyl-indan-1-yloxy]-2,3-dihydro-benzofuran-3-yl}-acetic acid]		24
O=C(O)C[C@@H]1COc2cc(O[C@@H]3CCc4c(Cc5cc(F)cc(F)c5)ccc(F)c43)ccc21 [Example 18, {(S)-6-[(R)-4-(3,5-Difluoro-benzyl)-7-fluoro-indan-1-yloxy]-2,3-dihydrobenzofuran-3-yl}-acetic acid]		27
O=C(O)C[C@@H]1COc2cc(O[C@@H]3CCc4c(Cc5c(F)cccc5F)ccc(F)c43)ccc21 [Example 19, {(S)-6-[(R)-4-(2,6-Difluoro-benzyl)-7-fluoro-indan-1-yloxy]-2,3-dihydrobenzofuran-3-yl}-acetic acid]		23
N#Cc1ccc(Cc2ccc(F)c3c2CC[C@H]3Oc2ccc3c(c2)OC[C@H]3CC(=O)O)cc1 [Example 20, {(S)-6-[(R)-4-(4-Cyano-benzyl)-7-fluoro-indan-1-yloxy]-2,3-dihydrobenzofuran-3-yl}-acetic acid]		589
O=C(O)C[C@@H]1COc2cc(O[C@@H]3CCc4c(Cc5ccc(F)cc5F)ccc(F)c43)ccc21 [Example 21, {(S)-6-[(R)-4-(2,4-Difluoro-benzyl)-7-fluoro-indan-1-yloxy]-2,3-dihydrobenzofuran-3-yl}-acetic acid]		15
N#Cc1ccc2c(c1Cc1ccccc1F)CC[C@H]2Oc1ccc2c(c1)OC[C@H]2CC(=O)O [Example 22, {(S)-6-[(R)-5-Cyano-4-(2-fluoro-benzyl)-indan-1-yloxy]-2,3-dihydro-benzofuran-3-yl}-acetic acid]		6
N#Cc1ccc2c(c1Cc1ccc(F)cc1)CC[C@H]2Oc1ccc2c(c1)OC[C@H]2CC(=O)O [Example 23, {(S)-6-[(R)-5-Cyano-4-(4-fluoro-benzyl)-indan-1-yloxy]-2,3-dihydro-benzofuran-3-yl}-acetic acid]		11
N#Cc1ccc2c(c1Cc1cccc(F)c1)CC[C@H]2Oc1ccc2c(c1)OC[C@H]2CC(=O)O [Example 24, {(S)-6-[(R)-5-Cyano-4-(3-fluoro-benzyl)-indan-1-yloxy]-2,3-dihydro-benzofuran-3-yl}-acetic acid]		12
O=C(O)C[C@@H]1COc2cc(O[C@@H]3CCc4c3ccc(C(F)(F)F)c4Cc3ccc(O)cc3)ccc21 [Example 25, {(S)-6-[(R)-4-(4-Hydroxy-benzyl)-5-trifluoromethyl-indan-1-yloxy]-2,3-dihydrobenzofuran-3-yl}-acetic acid]		2
O=C(O)C[C@@H]1COc2cc(O[C@@H]3CCc4c3ccc(C(F)(F)F)c4Cc3ccc(F)cc3F)ccc21 [Example 26, {(S)-6-[(R)-4-(2,4-Difluoro-benzyl)-5-trifluoromethyl-indan-1-yloxy]-2,3-dihydrobenzofuran-3-yl}-acetic acid]		2
COc1cccc(Cc2c(C(F)(F)F)ccc3c2CC[C@H]3Oc2ccc3c(c2)OC[C@H]3CC(=O)O)c1 [Example 27, {(S)-6-[(R)-4-(3-Methoxy-benzyl)-5-trifluoromethyl-indan-1-yloxy]-2,3-dihydrobenzofuran-3-yl}-acetic acid]		5
N#Cc1ccc2c(c1Cc1c(F)cccc1F)CC[C@H]2Oc1ccc2c(c1)OC[C@H]2CC(=O)O [Example 28, {(S)-6-[(R)-5-Cyano-4-(2,6-difluoro-benzyl)-indan-1-yloxy]-2,3-dihydro-benzofuran-3-yl}-acetic acid]		5
O=C(O)C[C@@H]1COc2cc(O[C@@H]3CCc4c3ccc(C(F)(F)F)c4Cc3cccc(F)c3)ccc21 [Example 29, {(S)-6-[(R)-4-(3-Fluoro-benzyl)-5-trifluoromethyl-indan-1-yloxy]-2,3-dihydrobenzofuran-3-yl}-acetic acid]		3
O=C(O)C[C@@H]1COc2cc(O[C@@H]3CCc4c3ccc(C(F)(F)F)c4Cc3ccc(F)cc3)ccc21 [Example 30, {(S)-6-[(R)-4-(4-Fluoro-benzyl)-5-trifluoromethyl-indan-1-yloxy]-2,3-dihydrobenzofuran-3-yl}-acetic acid]		2
O=C(O)C[C@@H]1COc2cc(O[C@@H]3CCc4c3ccc(C(F)(F)F)c4Cc3ccccc3F)ccc21 [Example 31, {(S)-6-[(R)-4-(2-Fluoro-benzyl)-5-trifluoromethyl-indan-1-yloxy]-2,3-dihydrobenzofuran-3-yl}-acetic acid]		2
N#Cc1ccc2c(c1Cc1cccc(F)c1F)CC[C@H]2Oc1ccc2c(c1)OC[C@H]2CC(=O)O [Example 32, {(S)-6-[(R)-5-Cyano-4-(2,3-difluoro-benzyl)-indan-1-yloxy]-2,3-dihydro-benzofuran-3-yl}-acetic acid]		8
COc1ccc(Cc2c(C(F)(F)F)ccc3c2CC[C@H]3Oc2ccc3c(c2)OC[C@H]3CC(=O)O)cc1 [Example 33, {(S)-6-[(R)-4-(4-Methoxy-benzyl)-5-trifluoromethyl-indan-1-yloxy]-2,3-dihydrobenzofuran-3-yl}-acetic acid]		2
N#Cc1cccc(Cc2c(C(F)(F)F)ccc3c2CC[C@H]3Oc2ccc3c(c2)OC[C@H]3CC(=O)O)c1 [Example 34, {(S)-6-[(R)-4-(3-Cyano-benzyl)-5-trifluoromethyl-indan-1-yloxy]-2,3-dihydrobenzofuran-3-yl}-acetic acid]		4
Cc1ccccc1Cc1c(C(F)(F)F)ccc2c1CC[C@H]2Oc1ccc2c(c1)OC[C@H]2CC(=O)O [Example 35, {(S)-6-[(R)-4-(2-Methyl-benzyl)-5-trifluoromethyl-indan-1-yloxy]-2,3-dihydrobenzofuran-3-yl}-acetic acid]		2
N#Cc1ccccc1Cc1c(C(F)(F)F)ccc2c1CC[C@H]2Oc1ccc2c(c1)OC[C@H]2CC(=O)O [Example 36, {(S)-6-[(R)-4-(2-Cyano-benzyl)-5-trifluoromethyl-indan-1-yloxy]-2,3-dihydrobenzofuran-3-yl}-acetic acid]		2
O=C(O)C[C@@H]1COc2cc(O[C@@H]3CCc4c3ccc(C(F)(F)F)c4Cc3ccc(Cl)cc3)ccc21 [Example 37, {(S)-6-[(R)-4-(4-Chloro-benzyl)-5-trifluoromethyl-indan-1-yloxy]-2,3-dihydrobenzofuran-3-yl}-acetic acid]		4
COc1ccc(Cc2c(C(F)(F)F)ccc3c2CC[C@H]3Oc2ccc3c(c2)OC[C@H]3CC(=O)O)cn1 [Example 38]		1
COc1ccc(OC)c(Cc2c(C(F)(F)F)ccc3c2CC[C@H]3Oc2ccc3c(c2)OC[C@H]3CC(=O)O)c1 [Example 40, {(S)-6-[(R)-4-(2,5-Dimethoxy-benzyl)-5-trifluoromethyl-indan-1-yloxy]-2,3-dihydrobenzofuran-3-yl}-acetic acid]		5
